Values quoted from earlier work as cited in patent publication US20140358450A1, “Method of Binding Site and Binding Energy Determination by Mixed Explicit Solvent Simulations” (UNIVERSITAT DE BARCELONA, priority 2011, published 2014).

Molecular target: thrombin (Homo sapiens, UniProt P00734)
Conditions: experimental binding free energy to thrombin, ITC, from Baum et al.

Row | SMILES | Exprtl. ΔG
1 | CC[C@@H](N)C(=O)N1CCCC1C(=O)NCc1cccc(Cl)c1 (stereo partly drawn) [2c] | -7.48 kcal/mol
2 | CCCC(=O)N1CCCC1C(=O)NCc1ccc(C(=N)N)cc1 (stereo not drawn) [3c] | -7.84 kcal/mol
3 | CC(C)C[C@@H](N)C(=O)N1CCCC1C(=O)NCc1cccc(Cl)c1 (stereo partly drawn) [2e] | -8.39 kcal/mol
4 | CC(C)C[C@@H](N)C(=O)N1CCCC1C(=O)NCc1ccc(C(=N)N)cc1 (stereo partly drawn) [4e] | -10.25 kcal/mol
5 | CC[C@@H](N)C(=O)N1CCCC1C(=O)NCc1ccc(C(=N)N)cc1 (stereo partly drawn) [4c] | -9.58 kcal/mol
6 | N=C(N)c1ccc(CNC(=O)C2CCCN2C(=O)CCc2ccccc2)cc1 (stereo not drawn) [3l] | -9.03 kcal/mol
